Key:
[1] = molecular target: FGFR4 (Homo sapiens (Human), UniProt P22455); experiment: HTRF KinEASE-TK kinase assay, FGFR4; type: biochemical; conditions: for remaining activity at 1 µM: read-out: % FGFR4 Remaining activity vs DMSO (1 μM, 3 h); for remaining activity at 10 µM: read-out: % FGFR4 Remaining activity vs DMSO (10 μM, 3 h)
Procedure, shortened: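 Promega FGFR4 at 0.333 ng/ul (5.12 nM) preincubated with or without inhibitor for 3 h at room temperature, then reaction started with biotinylated substrate and ATP. Stopped with EDTA detection buffer containing 31.25 nM SA-XL665 and Eu-antibody; after 60 min, HTRF 665/620 nm ratio read as substrate phosphorylation.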

[2] = molecular target: EGFR (Homo sapiens (Human), UniProt P00533); experiment: HTRF KinEASE-TK kinase assay, EGFR; type: biochemical; conditions: 3 h preincubation; for remaining activity at 1 µM: 1 μM compound, read-out: % EGFR Remaining activity vs DMSO (1 μM, 3 h); for remaining activity at 10 µM: 10 μM compound, read-out: % EGFR Remaining activity vs DMSO (10 μM, 3 h); for IC50: dose response, read-out: EGFR Inhibition IC50
Procedure, shortened: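 HTRF KinEASE-TK format: EGFR pre-incubated with compound at 1 and 10 uM final (0.5% DMSO) in kinase buffer with 2 mM MnCl2, 5 mM MgCl2 and 1 mM TCEP.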

[3] = molecular target: RIPK2 (Homo sapiens (Human), UniProt O43353); experiment: In vitro RIPK2 inhibition; type: biochemical; conditions: for remaining activity at 1 µM: read-out: % RIPK2 Remaining activity vs DMSO (1 μM, 3 h); for remaining activity at 10 µM: read-out: % RIPK2 Remaining activity vs DMSO (10 μM, 3 h)
[4] = molecular target: T1, BTK (Homo sapiens (Human), UniProt Q06187); experiment: Ramos RA1 cell lysis and immunoassay, phospho-BTK (Y223) inhibition; type: cell-based; design: key: X: BTK bound and autophosphoration of BTK inhibited in cells; conditions: RAMOS cells, compound concentration 1 μM
Procedure, shortened: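 Ramos RA1 cells treated with compound or DMSO for 24 h at 37° C., lysed in RIPA, analysed by Simple Western. Total BTK normalised to β-actin, pBTK (Y223) to total-protein reagent; both expressed relative to DMSO control.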

[5] = molecular target: BMX (Homo sapiens (Human), UniProt P51813); experiment: HTRF KinEASE-TK kinase assay, BMX; type: biochemical; conditions: for remaining activity at 1 µM: 1 uM compound; for remaining activity at 1 µM / remaining activity at 10 µM: 3 h preincubation; for remaining activity at 10 µM: 10 uM compound; for IC50: dose response
Procedure, shortened: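 Purchased BMX (0.333 ng/ul, 3.03 nM) was preincubated with or without inhibitor for 3 h at room temperature, then biotinylated substrate and ATP were added. Reactions were stopped with EDTA-containing buffer holding 31.25 nM SA-XL665 and Eu-antibody, and after 60 min phosphorylation was read as the HTRF 665/620 nm emission ratio.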

[6] = molecular target: T1, BTK; experiment: HTRF KinEASE-TK kinase assay, BTK; type: biochemical; conditions: 3 h preincubation; for remaining activity at 1 µM: 1 μM compound, read-out: % BTK Remaining activity vs DMSO (1 μM, 3 h); for remaining activity at 10 µM: 10 μM compound, read-out: % BTK Remaining activity vs DMSO (10 μM, 3 h); for IC50: dose response, read-out: BTK Inhibition IC50
Procedure, shortened: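 BTK activity in HTRF KinEASE-TK format, buffer containing 10 mM MnCl2, 5 mM MgCl2, 1 uM ATPγS and 1 mM TCEP; 45 min reaction with biotinylated substrate and ATP.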

[7] = molecular target: JAK3 (Homo sapiens (Human), UniProt P52333); experiment: HTRF KinEASE-TK kinase assay, JAK3; type: biochemical; conditions: for remaining activity at 1 µM: read-out: % JAK3 Remaining activity vs DMSO (1 μM, 3 h); for remaining activity at 10 µM: read-out: % JAK3 Remaining activity vs DMSO (10 μM, 3 h)
Procedure, shortened: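 Promega JAK3 at 0.21 nM was preincubated with inhibitor for 3 h at room temperature before biotinylated substrate and ATP were added. The reaction was stopped with EDTA detection buffer containing 31.25 nM SA-XL665 and Eu-antibody. After 60 min, the HTRF 665/620 nm emission ratio reflected substrate phosphorylation.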

Sequence of JAK3 (P52333 781-1124): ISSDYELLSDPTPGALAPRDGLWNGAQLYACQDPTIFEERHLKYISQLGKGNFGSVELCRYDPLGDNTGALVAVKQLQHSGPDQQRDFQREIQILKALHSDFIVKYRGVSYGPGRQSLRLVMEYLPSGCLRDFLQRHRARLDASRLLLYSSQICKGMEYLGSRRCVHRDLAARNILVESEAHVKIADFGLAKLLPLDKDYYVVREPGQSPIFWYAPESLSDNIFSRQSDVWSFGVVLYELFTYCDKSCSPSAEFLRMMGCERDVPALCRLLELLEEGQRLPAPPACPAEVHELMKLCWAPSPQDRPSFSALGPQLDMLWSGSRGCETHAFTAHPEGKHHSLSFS
Sequence of BMX (P51813 whole entry): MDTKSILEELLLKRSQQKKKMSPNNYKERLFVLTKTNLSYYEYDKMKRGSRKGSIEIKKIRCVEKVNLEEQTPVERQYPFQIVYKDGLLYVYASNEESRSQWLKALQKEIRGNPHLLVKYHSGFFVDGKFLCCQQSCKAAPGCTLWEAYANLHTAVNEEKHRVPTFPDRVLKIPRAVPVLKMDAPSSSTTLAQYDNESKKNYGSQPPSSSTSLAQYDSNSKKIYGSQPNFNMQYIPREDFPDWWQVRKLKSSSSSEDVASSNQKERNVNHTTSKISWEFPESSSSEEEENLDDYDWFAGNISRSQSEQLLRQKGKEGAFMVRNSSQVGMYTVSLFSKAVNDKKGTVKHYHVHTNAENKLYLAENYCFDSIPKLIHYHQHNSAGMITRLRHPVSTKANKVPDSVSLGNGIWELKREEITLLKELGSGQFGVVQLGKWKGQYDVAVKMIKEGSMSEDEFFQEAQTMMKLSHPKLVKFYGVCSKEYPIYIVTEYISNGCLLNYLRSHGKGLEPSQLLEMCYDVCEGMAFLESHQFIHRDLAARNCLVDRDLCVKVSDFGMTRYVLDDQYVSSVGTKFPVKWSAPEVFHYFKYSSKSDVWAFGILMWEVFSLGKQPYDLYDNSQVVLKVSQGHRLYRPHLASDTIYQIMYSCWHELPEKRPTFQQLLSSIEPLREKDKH
T1 sequence (Q06187 whole entry): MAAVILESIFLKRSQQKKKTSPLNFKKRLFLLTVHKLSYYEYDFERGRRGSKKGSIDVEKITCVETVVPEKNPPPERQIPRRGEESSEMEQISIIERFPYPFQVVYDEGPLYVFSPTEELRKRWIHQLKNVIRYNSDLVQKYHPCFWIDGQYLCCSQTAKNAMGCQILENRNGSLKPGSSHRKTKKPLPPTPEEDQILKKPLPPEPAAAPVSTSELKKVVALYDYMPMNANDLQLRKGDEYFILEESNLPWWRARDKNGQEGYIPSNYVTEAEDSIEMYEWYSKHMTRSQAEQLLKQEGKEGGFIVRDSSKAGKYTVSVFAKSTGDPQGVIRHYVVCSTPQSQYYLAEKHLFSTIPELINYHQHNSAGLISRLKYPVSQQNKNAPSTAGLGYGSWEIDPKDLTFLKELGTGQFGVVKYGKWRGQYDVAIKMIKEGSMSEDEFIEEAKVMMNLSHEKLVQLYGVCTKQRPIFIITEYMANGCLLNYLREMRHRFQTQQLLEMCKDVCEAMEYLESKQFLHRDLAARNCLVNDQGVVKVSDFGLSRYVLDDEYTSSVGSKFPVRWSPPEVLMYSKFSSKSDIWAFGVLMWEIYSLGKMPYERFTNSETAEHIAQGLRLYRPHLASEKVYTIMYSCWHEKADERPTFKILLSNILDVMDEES
Sequence of FGFR4 (P22455 22-802): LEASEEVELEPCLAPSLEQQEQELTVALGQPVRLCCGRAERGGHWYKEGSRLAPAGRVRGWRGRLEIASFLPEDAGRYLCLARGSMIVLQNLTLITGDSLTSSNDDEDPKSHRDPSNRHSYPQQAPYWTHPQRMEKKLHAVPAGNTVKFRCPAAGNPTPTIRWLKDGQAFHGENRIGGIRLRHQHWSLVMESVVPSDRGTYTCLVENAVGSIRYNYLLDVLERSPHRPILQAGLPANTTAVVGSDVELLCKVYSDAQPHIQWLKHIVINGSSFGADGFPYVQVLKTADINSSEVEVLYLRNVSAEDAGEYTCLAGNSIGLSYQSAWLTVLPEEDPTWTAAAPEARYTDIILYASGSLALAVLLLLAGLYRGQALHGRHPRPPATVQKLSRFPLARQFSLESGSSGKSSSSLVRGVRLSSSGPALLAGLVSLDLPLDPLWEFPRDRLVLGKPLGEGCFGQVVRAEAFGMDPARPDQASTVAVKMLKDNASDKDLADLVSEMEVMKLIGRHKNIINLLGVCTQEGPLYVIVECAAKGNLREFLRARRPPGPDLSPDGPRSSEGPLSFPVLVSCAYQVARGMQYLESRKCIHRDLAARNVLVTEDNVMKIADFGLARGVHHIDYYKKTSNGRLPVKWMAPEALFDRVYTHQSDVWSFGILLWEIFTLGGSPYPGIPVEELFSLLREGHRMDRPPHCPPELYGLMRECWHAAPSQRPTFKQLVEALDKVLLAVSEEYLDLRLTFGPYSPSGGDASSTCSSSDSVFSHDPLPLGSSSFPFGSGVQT
Sequence of RIPK2 (O43353 whole entry, species assumed): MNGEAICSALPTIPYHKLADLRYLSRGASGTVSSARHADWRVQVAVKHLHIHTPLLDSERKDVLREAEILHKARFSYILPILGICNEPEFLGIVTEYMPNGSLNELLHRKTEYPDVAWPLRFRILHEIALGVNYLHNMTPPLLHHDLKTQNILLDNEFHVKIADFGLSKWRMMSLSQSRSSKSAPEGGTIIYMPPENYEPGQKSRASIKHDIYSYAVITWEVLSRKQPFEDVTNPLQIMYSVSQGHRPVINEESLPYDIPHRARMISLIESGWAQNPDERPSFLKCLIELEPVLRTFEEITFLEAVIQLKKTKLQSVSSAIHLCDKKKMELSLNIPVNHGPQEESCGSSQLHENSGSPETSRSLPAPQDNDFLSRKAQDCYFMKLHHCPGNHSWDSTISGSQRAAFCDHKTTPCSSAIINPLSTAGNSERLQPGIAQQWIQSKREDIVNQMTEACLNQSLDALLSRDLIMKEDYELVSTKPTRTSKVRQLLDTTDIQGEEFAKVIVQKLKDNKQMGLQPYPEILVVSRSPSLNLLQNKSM
Sequence of EGFR (P00533 25-1210): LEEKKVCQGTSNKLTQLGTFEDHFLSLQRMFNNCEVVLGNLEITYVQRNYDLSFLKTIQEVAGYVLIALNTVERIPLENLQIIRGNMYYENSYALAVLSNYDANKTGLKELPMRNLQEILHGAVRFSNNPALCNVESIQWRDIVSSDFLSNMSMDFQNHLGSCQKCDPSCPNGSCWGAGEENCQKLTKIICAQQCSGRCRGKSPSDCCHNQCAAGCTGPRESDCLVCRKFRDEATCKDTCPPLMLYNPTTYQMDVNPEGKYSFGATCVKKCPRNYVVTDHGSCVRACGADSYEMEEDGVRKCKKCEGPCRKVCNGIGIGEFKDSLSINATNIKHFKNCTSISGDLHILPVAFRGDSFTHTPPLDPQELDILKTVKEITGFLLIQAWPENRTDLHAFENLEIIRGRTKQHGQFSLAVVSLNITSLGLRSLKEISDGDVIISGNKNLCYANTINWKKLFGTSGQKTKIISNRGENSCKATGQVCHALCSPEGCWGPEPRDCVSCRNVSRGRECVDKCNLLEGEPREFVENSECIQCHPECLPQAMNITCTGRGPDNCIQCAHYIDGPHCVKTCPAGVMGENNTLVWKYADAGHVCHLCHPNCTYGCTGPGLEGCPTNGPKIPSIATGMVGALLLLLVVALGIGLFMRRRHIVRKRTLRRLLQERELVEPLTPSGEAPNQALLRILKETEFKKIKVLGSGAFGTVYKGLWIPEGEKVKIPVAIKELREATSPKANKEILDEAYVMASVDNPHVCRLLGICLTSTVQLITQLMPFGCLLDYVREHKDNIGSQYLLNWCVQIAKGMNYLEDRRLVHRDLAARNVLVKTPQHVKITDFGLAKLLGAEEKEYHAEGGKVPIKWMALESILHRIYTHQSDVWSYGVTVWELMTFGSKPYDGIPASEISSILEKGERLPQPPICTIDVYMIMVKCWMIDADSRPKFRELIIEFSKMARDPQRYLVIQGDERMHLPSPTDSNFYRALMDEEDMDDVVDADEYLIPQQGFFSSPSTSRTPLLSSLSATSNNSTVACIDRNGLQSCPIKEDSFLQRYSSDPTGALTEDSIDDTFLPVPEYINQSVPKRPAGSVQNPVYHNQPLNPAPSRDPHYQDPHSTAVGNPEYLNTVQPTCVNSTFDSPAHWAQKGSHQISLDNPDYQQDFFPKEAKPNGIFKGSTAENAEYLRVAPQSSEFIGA

| Compound | remaining activity at 1 µM [1] [%] | remaining activity at 10 µM [1] [%] | remaining activity at 1 µM [2] [%] | remaining activity at 10 µM [2] [%] | remaining activity at 1 µM [3] [%] | remaining activity at 10 µM [3] [%] | pBTK inhibition (RAMOS, 24 h) [4] | remaining activity at 1 µM [5] [%] | remaining activity at 10 µM [5] [%] | IC50 [5] [nM] | remaining activity at 1 µM [6] [%] | remaining activity at 10 µM [6] [%] | IC50 [6] [nM] | remaining activity at 1 µM [7] [%] | remaining activity at 10 µM [7] [%] | IC50 ([1]; dose response) [nM] | IC50 [2] [nM] | IC50 ([7]; dose response) [nM] |
| --- | --- | --- | --- | --- | --- | --- | --- | --- | --- | --- | --- | --- | --- | --- | --- | --- | --- | --- |
| Nc1ncnc2c1c(-c1ccc(Oc3ccccc3)cc1)nn2CCNC(=O)c1c(F)c(F)c(F)c(F)c1S(N)(=O)=O [Compound I-42, N-(2-(4-amino-3-(4-phenoxyphenyl)-1H-pyrazolo[3,4-d]pyrimidin-1-yl)ethyl)-2,3,4,5-tetrafluoro-6-sulfamoylbenzamide] | 50 to 90 | 50 to 90 | 50 to 90 | < 50 | > 90 | > 90 | X | < 50 | < 50 | < 1000 | < 50 | 50 to 90 | < 1000 | > 90 | 50 to 90 |  |  |  |
| CS(=O)(=O)c1c(F)c(F)c(F)c(F)c1C(=O)NCCCn1nc(-c2ccc(Oc3ccccc3)cc2)c2c(N)ncnc21 [Compound I-39, N-(3-(4-amino-3-(4-phenoxyphenyl)-1H-pyrazolo[3,4-d]pyrimidin-1-yl)propyl)-2,3,4,5-tetrafluoro-6-(methylsulfonyl)benzamide] | < 50 | < 50 | < 50 | < 50 | > 90 | > 90 | X | < 50 | < 50 |  | < 50 | < 50 |  | 50 to 90 | < 50 | < 1000 | < 1000 |  |
| C[S@+]([O-])c1c(F)c(F)c(F)c(F)c1C(=O)N1CC(n2nc(-c3ccc(Oc4ccccc4)cc3)c3c(N)ncnc32)C1 (racemic) [Compound I-37, (3-(4-amino-3-(4-phenoxyphenyl)-1H-pyrazolo[3,4-d]pyrimidin-1-yl)azetidin-1-yl)(2,3,4,5-tetrafluoro-6-(methylsulfinyl)phenyl)methanone] | > 90 | > 90 | < 50 | < 50 | 50 to 90 | > 90 | X | < 50 | < 50 | < 1000 | < 50 | < 50 | < 1000 | < 50 | < 50 |  | < 1000 | > 1000 |
| CN(CCn1nc(-c2ccc(Oc3ccccc3)cc2)c2c(N)ncnc21)C(=O)c1c(F)c(F)c(F)c(F)c1S(N)(=O)=O [Compound I-33, N-(2-(4-amino-3-(4-phenoxyphenyl)-1H-pyrazolo[3,4-d]pyrimidin-1-yl)ethyl)-2,3,4,5-tetrafluoro-N-methyl-6-sulfamoylbenzamide] | 50 to 90 | < 50 | > 90 | < 50 | 50 to 90 | > 90 | X | < 50 | < 50 |  | < 50 | < 50 | < 1000 | > 90 | 50 to 90 |  |  |  |

— patent US20240018153A1, “BENZENESULFONAMIDE DERIVATIVES AND USES THEREOF” (2692372 ONTARIO, INC., priority 2020, published 2024)
